Assay results as given in the supplement of paper PMC11451515.

Assays:
Assay in all cases: AUC of viability dose-response curve (% viability x log10 dose units); higher = less sensitive
Conditions in all cases: 48 h
[1] = system: P12-Ichikawa
Outline: (§1)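 Leukemia cells adapted to each medium were seeded at 500 or 1000 cells/well in 1536-well plates and dosed with library compounds in DMSO at 11 threefold doses from 47 μM to 0.79 nM for 48 h at 37°C. CellTiter-Glo One luminescence was normalised per plate to DMSO and cell-free wells, then fitted with a four-parameter log-logistic model over log10 doses. Area under the curve was taken from this fit by the trapezoidal rule, with curves above full viability scaled and curves failing quality control removed.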

[2] = system: NOMO1
Outline: as §1

[3] = system: SEM cells
Outline: as §1

[4] = RPMI 5 mM glucose + 10% dialyzed FBS

| SMILES | AUC of viability dose-response curve ([1]; HPLM + 10% dialyzed FBS) | AUC of viability dose-response curve ([1]; RPMI 5 mM glucose + 10% FBS) | AUC of viability dose-response curve [1, 4] | AUC of viability dose-response curve ([2]; HPLM + 10% dialyzed FBS) | AUC of viability dose-response curve ([2]; RPMI 5 mM glucose + 10% FBS) | AUC of viability dose-response curve [2, 4] | AUC of viability dose-response curve ([3]; HPLM + 10% dialyzed FBS) | AUC of viability dose-response curve ([3]; RPMI 5 mM glucose + 10% FBS) | AUC of viability dose-response curve [3, 4] |
| --- | --- | --- | --- | --- | --- | --- | --- | --- | --- |
| CCNC(=O)c1cc2c(-c3cc(OCCN4CCCC4)c(Cl)cc3Cl)nc(N)nc2s1 | 415 | 389 | 380 | 381 | 355 | 373 | 379 | 375 | 368 |
| CCCCCCCc1ccc(CCc2cccc(O)c2C(=O)O)cc1 | 445 | 434 | 435 | 472 | 445 | 441 | 474 | 474 | 461 |
| COc1cc2c(Nc3ccc(Cl)c(Cl)c3F)ncnc2cc1OC[C@@H]1C[C@@H]2CN(C)C[C@@H]2C1 | 388 | 388 | 401 | 355 | 437 | 418 | 383 | 358 | 379 |
| Cn1c(Nc2ccc(C(F)(F)F)cc2)nc2cc(Oc3ccnc(-c4nc(C(F)(F)F)c[nH]4)c3)ccc21 | 441 | 425 | 431 | 444 | 454 | 446 | 402 | 389 | 395 |
| CN(C/C=C/C#CC(C)(C)C)Cc1cccc2ccccc12 | 475 | 468 | 444 | 458 | 440 | 447 | 452 | 450 | 455 |
| OC[C@H](Cc1ccccc1)Nc1nc(Oc2ccc3c(c2)CCC3)nc2c1ncn2Cc1ccc(-c2ccccc2)cc1 | 454 | 431 | 418 | 463 | 434 | 458 | 455 | 428 | 432 |
| C[C@@]12O[C@@H](C[C@]1(O)CO)n1c3ccccc3c3c4c(c5c6ccccc6n2c5c31)CNC4=O | 326 | 311 | 311 | 313 | 326 | 324 | 251 | 217 | 228 |
| CCC1(c2ccc(N)cc2)CCC(=O)NC1=O (stereo unspecified) | 449 | 427 | 434 | 463 | 473 | 465 | 433 | 424 | 401 |
| C[S+](=O)([O-])N(Cc1ccco1)CC(O)Cn1c2ccccc2c2ccccc21 (stereo unspecified) | 436 | 414 | 409 | 421 | 415 | 417 | 407 | 396 | 381 |
